According to US9539260B2, “Dihydro-benzo-oxazine and dihydro-pyrido-oxazine derivatives” (Novartis AG, priority 2012, dated 2017):

Experiments:
PI3K alpha = PI3K alpha (Homo sapiens (Human), UniProt P42336); test: Enzymatic PI3K alpha isoform inhibition (lipid kinase activity, Kinase-Glo luminescence); type: biochemical; conditions: Enzymatic assay
Method: (§1) 1.1 Test of Lipid Kinase Activity […]
(§2) In a more preferred assay, the kinase reaction is performed in a final volume of 10 μl per well of a low volume non-binding CORNING, 384 well black plate (Cat. No. #3676). The final concentrations of ATP and phosphatidyl inositol (PI) in the assay are 1 μM and 10 μg/mL, respectively. The reaction is started by the addition of ATP.
(§3) The components of the assay are added per well as follows:
(§4) The Z′ value is a universal measurement of the robustness of an assay. A Z′ between 0.5 and 1.0 is considered an excellent assay.
(§5) IC50 is determined by a four parameter curve fitting routine that comes along with “excel fit”. A four parameter logistic equation is used to calculate IC50 values (IDBS XLfit) of the percentage inhibition of each compound at 8 concentrations (usually 10, 3.0, 1.0, 0.3, 0.1, 0.030, 0.010 and 0.003 μM). Alternatively, IC50 values are calculated using idbsXLfit model 204, which is a 4 parameter logistic model.
(§6) Yet alternatively, for an ATP depletion assay, compounds of the formula I to be tested are dissolved in DMSO and directly distributed into a white 384-well plate at 0.5 μl per well. To start the reaction, 10 μl of 10 nM PI3 kinase and 5 μg/mL 1-alpha-phosphatidylinositol (PI) are added into each well followed by 10 μl of 2 μM ATP. The reaction is performed until approx 50% of the ATP is depleted, and then stopped by the addition of 20 μl of Kinase-Glo solution (Promega Corp., Madison, Wis., USA). The stopped reaction is incubated for 5 minutes and the remaining ATP is then detected via luminescence. IC50 values are then determined.

PI3K delta = PI3K delta (Homo sapiens (Human), UniProt O00329); test: Enzymatic PI3K delta isoform inhibition (lipid kinase activity, Kinase-Glo luminescence); type: biochemical; conditions: Enzymatic assay
PI3K delta, sequence (O00329 other isoform, or with tags, fused parts or gaps linker GGGGGG): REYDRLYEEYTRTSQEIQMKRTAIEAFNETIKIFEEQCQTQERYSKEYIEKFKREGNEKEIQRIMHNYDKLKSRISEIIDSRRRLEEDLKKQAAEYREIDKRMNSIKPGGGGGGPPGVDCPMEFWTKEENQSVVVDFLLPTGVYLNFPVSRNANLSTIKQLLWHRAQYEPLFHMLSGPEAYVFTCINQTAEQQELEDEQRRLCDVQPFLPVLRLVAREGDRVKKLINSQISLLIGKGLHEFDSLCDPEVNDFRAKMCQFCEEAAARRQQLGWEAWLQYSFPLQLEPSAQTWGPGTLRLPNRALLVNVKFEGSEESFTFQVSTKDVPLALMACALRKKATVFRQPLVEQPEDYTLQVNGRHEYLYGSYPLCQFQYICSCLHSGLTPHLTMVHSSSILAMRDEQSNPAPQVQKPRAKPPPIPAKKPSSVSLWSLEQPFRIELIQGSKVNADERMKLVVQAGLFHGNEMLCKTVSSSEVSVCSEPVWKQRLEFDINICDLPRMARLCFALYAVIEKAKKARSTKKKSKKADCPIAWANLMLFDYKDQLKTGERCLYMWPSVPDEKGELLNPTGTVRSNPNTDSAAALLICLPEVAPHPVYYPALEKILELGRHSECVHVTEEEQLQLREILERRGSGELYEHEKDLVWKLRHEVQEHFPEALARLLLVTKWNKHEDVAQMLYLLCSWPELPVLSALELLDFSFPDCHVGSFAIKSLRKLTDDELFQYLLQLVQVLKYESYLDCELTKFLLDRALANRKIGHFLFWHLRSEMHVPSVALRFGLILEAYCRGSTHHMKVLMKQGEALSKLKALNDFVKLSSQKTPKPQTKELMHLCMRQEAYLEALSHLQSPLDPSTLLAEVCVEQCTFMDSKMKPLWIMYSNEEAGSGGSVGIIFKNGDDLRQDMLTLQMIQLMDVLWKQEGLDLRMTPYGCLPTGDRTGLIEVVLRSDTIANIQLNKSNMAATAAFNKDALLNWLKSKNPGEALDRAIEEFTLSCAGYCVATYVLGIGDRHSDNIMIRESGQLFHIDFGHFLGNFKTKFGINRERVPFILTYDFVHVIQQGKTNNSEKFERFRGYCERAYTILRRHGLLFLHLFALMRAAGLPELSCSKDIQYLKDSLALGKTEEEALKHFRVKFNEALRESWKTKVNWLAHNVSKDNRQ
Method: as §1, §2, §3, §4, §5, §6

PI3K alpha, sequence (P42336 other isoform, or with tags, fused parts or gaps): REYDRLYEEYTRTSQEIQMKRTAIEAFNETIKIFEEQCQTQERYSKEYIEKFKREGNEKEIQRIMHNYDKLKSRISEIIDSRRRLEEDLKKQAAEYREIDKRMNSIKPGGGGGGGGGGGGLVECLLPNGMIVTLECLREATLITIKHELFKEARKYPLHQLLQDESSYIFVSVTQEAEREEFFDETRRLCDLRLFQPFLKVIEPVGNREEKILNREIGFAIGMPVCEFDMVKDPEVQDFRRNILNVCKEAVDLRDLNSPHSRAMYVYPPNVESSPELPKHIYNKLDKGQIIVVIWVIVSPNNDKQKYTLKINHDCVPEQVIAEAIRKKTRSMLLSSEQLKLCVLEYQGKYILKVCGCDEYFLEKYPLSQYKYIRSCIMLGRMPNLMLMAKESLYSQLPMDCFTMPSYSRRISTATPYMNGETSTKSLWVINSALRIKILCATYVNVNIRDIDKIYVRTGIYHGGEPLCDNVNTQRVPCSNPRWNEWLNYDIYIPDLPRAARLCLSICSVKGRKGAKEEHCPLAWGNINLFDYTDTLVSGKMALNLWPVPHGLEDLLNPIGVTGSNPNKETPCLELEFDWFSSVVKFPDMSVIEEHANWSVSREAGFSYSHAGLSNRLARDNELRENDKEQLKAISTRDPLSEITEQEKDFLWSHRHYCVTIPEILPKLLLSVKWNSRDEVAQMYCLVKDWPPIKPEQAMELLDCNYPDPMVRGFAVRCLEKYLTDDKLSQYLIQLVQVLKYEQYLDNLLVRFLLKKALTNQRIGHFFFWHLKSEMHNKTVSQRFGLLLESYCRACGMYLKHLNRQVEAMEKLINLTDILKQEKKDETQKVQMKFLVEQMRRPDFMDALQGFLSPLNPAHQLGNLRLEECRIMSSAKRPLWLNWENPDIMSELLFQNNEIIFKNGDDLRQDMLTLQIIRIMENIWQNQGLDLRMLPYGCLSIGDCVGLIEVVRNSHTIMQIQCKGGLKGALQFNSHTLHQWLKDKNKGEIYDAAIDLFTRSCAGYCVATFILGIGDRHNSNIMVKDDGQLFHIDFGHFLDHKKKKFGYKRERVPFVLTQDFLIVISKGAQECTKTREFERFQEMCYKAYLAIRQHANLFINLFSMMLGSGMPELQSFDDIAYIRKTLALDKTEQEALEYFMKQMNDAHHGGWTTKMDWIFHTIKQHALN

IC50 (PI3K alpha) [nM]	IC50 (PI3K delta) [nM]	Structure (SMILES)
1270	78	CCC(=O)N1CC[C@H](Oc2ccc3c(c2)N(c2cnc4ccccc4c2)CCO3)C1 [Example A36, 1-[(S)-3-(4-Quinolin-3-yl-3,4-dihydro-2H-benzo[1,4]oxazin-6-yloxy)-pyrrolidin-1-yl]-propan-1-one]
370	78	CCC(=O)N1CC[C@H](Oc2ccc3c(c2)N(c2cncc(S(C)(=O)=O)c2)CCO3)C1 [Example A37, 1-{(S)-3-[4-(5-Methanesulfonyl-pyridin-3-yl)-3,4-dihydro-2H-benzo[1,4]oxazin-6-yloxy]-pyrrolidin-1-yl}-propan-1-one]
343	64	CCC(=O)N1CC[C@H](Oc2ccc3c(c2)N(c2cncc(C(F)(F)F)c2)CCO3)C1 [Example A38, 1-{(S)-3-[4-(5-Trifluoromethyl-pyridin-3-yl)-3,4-dihydro-2H-benzo[1,4]oxazin-6-yloxy]-pyrrolidin-1-yl}-propan-1-one]
71	9	CCC(=O)N1CC[C@H](Oc2ccc3c(c2)N(c2cncc(S(=O)(=O)N(C)C)c2)CCO3)C1 [Example A39, 5-[6-((S)-1-Propionyl-pyrrolidin-3-yloxy)-2,3-dihydro-benzo[1,4]oxazin-4-yl]-pyridine-3-sulfonic acid dimethylamide]
5360	462	CCC(=O)N1CC[C@H](Oc2ccc3c(c2)N(c2ccc(C)c(C#N)c2)CCO3)C1 [Example A40, 2-Methyl-5-[6-((S)-1-propionyl-pyrrolidin-3-yloxy)-2,3-dihydro-benzo[1,4]oxazin-4-yl]-benzonitrile]
2790	296	CCC(=O)N1CC[C@H](Oc2ccc3c(c2)N(c2ccc(OC)c(C(F)(F)F)c2)CCO3)C1 [Example A41, 1-{(S)-3-[4-(4-Methoxy-3-trifluoromethyl-phenyl)-3,4-dihydro-2H-benzo[1,4]oxazin-6-yloxy]-pyrrolidin-1-yl}-propan-1-one]
1140	30	O=C(C1CCOCC1)N1CC[C@H](Oc2ccc3c(c2)N(c2ccc(C(F)(F)F)nc2)CCO3)C1 [Example A42, (Tetrahydro-pyran-4-yl)-{(S)-3-[4-(6-trifluoromethyl-pyridin-3-yl)-3,4-dihydro-2H-benzo[1,4]oxazin-6-yloxy]-pyrrolidin-1-yl}-methanone]
4690	54	CS(=O)(=O)c1ccc(N2CCOc3ccc(O[C@H]4CCN(C(=O)C5CCOCC5)C4)cc32)cn1 [Example A43, {(S)-3-[4-(6-Methanesulfonyl-pyridin-3-yl)-3,4-dihydro-2H-benzo[1,4]oxazin-6-yloxy]-pyrrolidin-1-yl}-(tetrahydro-pyran-4-yl)-methanone]
1640	26	CCOc1ncc(N2CCOc3ccc(O[C@H]4CCN(C(=O)C5CCOCC5)C4)cc32)cc1C [Example B2, {(S)-3-[4-(6-Ethoxy-5-methyl-pyridin-3-yl)-3,4dihydro-2H-benzo[1,4]oxazin-6-yloxy]-pyrrolidin-1-yl}-(tetrahydro-pyran-4-yl)-methanone]
1230	83	CCC(=O)N1CC[C@H](Oc2ccc3c(c2)N(c2cnc(OC)c(OC)c2)CCO3)C1 [Example B4, 1-{(S)-3-[4-(5,6-Dimethoxy-pyridin-3-yl)-3,4-dihydro-2H-benzo[1,4]oxazin-6-yloxy]-pyrrolidin-1-yl}-propan-1-one]
236	25	CCC(=O)N1CC[C@H](Oc2ccc3c(c2)N(c2cncc(S(=O)(=O)C(C)C)c2)CCO3)C1 [Example B5, 1-((S)-3-{4-[5-(Propane-2-sulfonyl)-pyridin-3-yl]-3,4-dihydro-2H-benzo[1,4]oxazin-6-yloxy}-pyrrolidin-1-yl)-propan-1-one]
3540	114	CC[S+]([O-])c1ccc(N2CCOc3ccc(O[C@H]4CCN(C(=O)C5CCOCC5)C4)cc32)cn1 (stereo partly drawn) [Example B7, {(S)-3-[4-(6-Ethanesulfinyl-pyridin-3-yl)-3,4-dihydro-2H-benzo[1,4]oxazin-6-yloxy]-pyrrolidin-1-yl}-(tetrahydro-pyran-4-yl)-methanone]
188	25	Cc1cc(N2CCOc3ccc(O[C@H]4CCN(C(=O)c5cn(C)cn5)C4)cc32)cnc1S(C)(=O)=O [Example B8, {(S)-3-[4-(6-Methanesulfonyl-5-methyl-pyridin-3-yl)-3,4-dihydro-2H-benzo[1,4]oxazin-6-yloxy]-pyrrolidin-1-yl}-(1-methyl-1H-imidazol-4-yl)-methanone]
1770	78	COc1cc(N2CCOc3ccc(O[C@H]4CCN(C(=O)C5CCOCC5)C4)cc32)cnc1S(C)(=O)=O [Example B9, {(S)-3-[4-(6-Methanesulfonyl-5-methoxy-pyridin-3-yl)-3,4-dihydro-2H-benzo[1,4]oxazin-6-yloxy]-pyrrolidin-1-yl}-(tetrahydro-pyran-4-yl)-methanone]
823	14	COc1ncc(N2CCOc3ccc(O[C@H]4CCN(C(=O)C5CCS(=O)(=O)CC5)C4)cc32)cc1F [Example B11, (1,1-Dioxo-hexahydro-1lambda*6*-thiopyran-4-yl)-{(S)-3-[4-(5-fluoro-6-methoxy-pyridin-3-yl)-3,4-dihydro-2H-benzo[1,4]oxazin-6-yloxy]-pyrrolidin-1-yl}-methanone]
365	11	COc1ncc(N2CCOc3ccc(O[C@H]4CCN(C(=O)C5CCS(=O)(=O)CC5)C4)cc32)cc1Cl [Example B12, {(S)-3-[4-(5-Chloro-6-methoxy-pyridin-3-yl)-3,4-dihydro-2H-benzo[1,4]oxazin-6-yloxy]-pyrrolidin-1-yl}-(1,1-dioxo-hexahydro-1lambda*6*-thiopyran-4-yl)-methanone]
244	6	COc1ncc(N2CCOc3ccc(O[C@H]4CCN(C(=O)C5CCS(=O)(=O)CC5)C4)cc32)cc1C(F)(F)F [Example B14, (1,1-Dioxo-hexahydro-1lambda*6*-thiopyran-4-yl)-{(S)-3-[4-(6-methoxy-5-trifluoromethyl-pyridin-3-yl)-3,4-dihydro-2H-benzo[1,4]oxazin-6-yloxy]-pyrrolidin-1-yl}-methanone]
2650	31	COc1ncc(N2CCOc3ccc(O[C@H]4CCN(C(=O)C5CCOC5)C4)cc32)cc1C (stereo partly drawn) [Example B15, {(S)-3-[4-(6-Methoxy-5-methyl-pyridin-3-yl)-3,4-dihydro-2H-benzo[1,4]oxazin-6-yloxy]-pyrrolidin-1-yl}-(tetrahydro-furan-3-yl)-methanone]
4120	37	COc1ncc(N2CCOc3ccc(O[C@H]4CCN(C(=O)C5CCOC5)C4)cc32)cc1C (stereo partly drawn) [Example B16, {(S)-3-[4-(6-Methoxy-5-methyl-pyridin-3-yl)-3,4-dihydro-2H-benzo[1,4]oxazin-6-yloxy]-pyrrolidin-1-yl}-(tetrahydro-furan-3-yl)-methanone]
2090	23	CCOc1ncc(N2CCOc3ccc(O[C@H]4CCN(C(=O)C5CCS(=O)(=O)CC5)C4)cc32)cc1C [Example B17, (1,1-Dioxo-hexahydro-1lambda*6*-thiopyran-4-yl)-{(S)-3-[4-(6-ethoxy-5-methyl-pyridin-3-yl)-3,4-dihydro-2H-benzo[1,4]oxazin-6-yloxy]-pyrrolidin-1-yl}-methanone]
723	12	COc1ncc(N2CCOc3ccc(O[C@H]4CCN(C(=O)C5CCOCC5)C4)cc32)cc1F [Example B18]
1160	33	CCc1cc(N2CCOc3ccc(O[C@H]4CCN(C(=O)C5CCS(=O)(=O)CC5)C4)cc32)cnc1OC [Example B19, (1,1-Dioxo-hexahydro-1lambda*6*-thiopyran-4-yl)-{(S)-3-[4-(5-ethyl-6-methoxy-pyridin-3-yl)-3,4-dihydro-2H-benzo[1,4]oxazin-6-yloxy]-pyrrolidin-1-yl}-methanone]
339	47	COc1ncc(N2CCOc3ccc(O[C@H]4CCN(C(=O)c5cnn(C)c5)C4)cc32)cc1C [Example B20, {(S)-3-[4-(6-Methoxy-5-methyl-pyridin-3-yl)-3,4-dihydro-2H-benzo[1,4]oxazin-6-yloxy]-pyrrolidin-1-yl}-(1-methyl-1H-pyrazol-4-yl)-methanone]
666	13	COc1ncc(N2CCOc3ccc(O[C@H]4CCN(C(=O)c5ccn(C)n5)C4)cc32)cc1C [Example B21, {(S)-3-[4-(6-Methoxy-5-methyl-pyridin-3-yl)-3,4-dihydro-2H-benzo[1,4]oxazin-6-yloxy]-pyrrolidin-1-yl}-(1-methyl-1H-pyrazol-3-yl)-methanone]

Structure (SMILES)	IC50 (PI3K alpha) [nM]	IC50 (PI3K delta) [nM]
COc1ncc(N2CCOc3ccc(O[C@H]4CCN(C(=O)C5CCS(=O)(=O)C5)C4)cc32)cc1C (stereo partly drawn) [Example B13, (1,1-Dioxo-tetrahydro-1lambda*6*-thiophen-3-yl)-{(S)-3-[4-(6-methoxy-5-methyl-pyridin-3-yl)-3,4-dihydro-2H-benzo[1,4]oxazin-6-yloxy]-pyrrolidin-1-yl}-methanone]	862	62
